Experimental data from ChEMBL document CHEMBL4052785, “Discovery of (R)-5-(benzo[d][1,3]dioxol-5-yl)-7-((1-(vinylsulfonyl)pyrrolidin-2-yl)methyl)-7H-pyrrolo[2,3-d]pyrimidin-4-amine (B6) as a potent Bmx inhibitor for the treatment of NSCLC” (Bioorg Med Chem Lett, 2017).
Converted amounts (≈) assume the structure as drawn.

Tests used:
[1] = system: A549; assay: Antiproliferative activity against human A549 cells harboring wild type EGFR after 72 hrs by MTT assay; format: functional, cell-based; conditions: A549, 72 h
[2] = system: NCI-H1975; assay: Antiproliferative activity against human NCI-H1975 cells harboring EGFR L858R/T790M mutant after 72 hrs by MTT assay; format: functional, cell-based; conditions: NCI-H1975, 72 h
[3] = system: HCC827; assay: Antiproliferative activity against human HCC827 cells harboring EGFR Del19 mutant after 72 hrs by MTT assay; format: functional, cell-based; conditions: HCC827, 72 h
[4] = Aqueous solubility of the compound at 1 mg; format: physicochemical
[5] = system: NCI-H1975; assay: Antitumor activity against human NCI-H1975 cells xenografted in nude mouse assessed as tumor growth inhibition at 25 mg/kg administered via oral gavage qd measured every 2 days up to 18 days relative to control; format: functional; conditions: read-out: TGI

Structure (SMILES)	IC50 [1] [nM]	IC50 [2] [nM]	IC50 [3] [nM]	solubility [4] [µg/mL]	inhibition in vivo at 25 mg/kg [5] [%]
C=CS(=O)(=O)N1CCC[C@@H]1Cn1cc(-c2ccc(Oc3ccccc3)cc2)c2c(N)ncnc21	7440	440	504	< 10	
C=CC(=O)N1CCC[C@@H](n2nc(-c3ccc(Oc4ccccc4)cc3)c3c(N)ncnc32)C1 [IBRUTINIB]	21800	1270	39	< 10	59.6
C=CS(=O)(=O)N1CC[C@H](Cn2cc(-c3ccc(Oc4ccccc4)cc3)c3c(N)ncnc32)C1	13000	910	581	< 10	

More lines, in order of falling IC50 [1], values ahead:

IC50 [1] [nM]	IC50 [2] [nM]	IC50 [3] [nM]	solubility [4] [µg/mL]	Structure (SMILES)	inhibition in vivo at 25 mg/kg [5] [%]
15500	1920		< 10	C=CC(=O)N1CCC[C@@H]1Cn1cc(-c2ccc(Oc3ccccc3)cc2)c2c(N)ncnc21	
14200	6310		< 10	C=CC(=O)N1CCC(Cn2cc(-c3ccc(Oc4ccccc4)cc3)c3c(N)ncnc32)C1 (single isomer, unassigned)	
12900	2920		100 (≈ 255 µM)	C=CC(=O)N1CCC[C@@H]1Cn1cc(-c2ccc3c(c2)OCO3)c2c(N)ncnc21	
8240	6300		100 (≈ 255 µM)	C=CC(=O)N1CCC(Cn2cc(-c3ccc4c(c3)OCO4)c3c(N)ncnc32)C1 (single isomer, unassigned)	
1780	330	16	100 (≈ 234 µM)	C=CS(=O)(=O)N1CC[C@H](Cn2cc(-c3ccc4c(c3)OCO4)c3c(N)ncnc32)C1	
